What was measured:
Candida albicans = test: Antimicrobial screening, agar dilution method; assay type: cell-based; conditions: after 10, 20, 40 and 60 minutes at all dilutions 1:100, 1:200, 1:400, 1:800
Protocol: (§1) The antibacterial properties of the synthesized compound 2-ethoxy-8-(4-fluorobenzylidene)-4-(4-fluorophenyl)-5,6,7,8-tetrahydroquinoline-3-carbonitrile were studied by the method of agar dilution. Test solutions of each compound was prepared in concentration of 1% using dimethylformamide as a solvent then they are diluted in physiological solution to obtain the final experimental dilutions 1:100, 1:200, 1:400, 1:800. The effects of these substances are compared with furacillin in a controllable study. The testing microbes used were gram positive bacteria Staphylococcus aureus, gram negative bacteria Pseudomonas aeruginosa and Escherichia coli and Candida albicans fungus. The experiments used for this survey were meat-pentonlu agar (EPA) for cultivation of bacteria and Saburo environment for the fungus. Each experiment used 1 mL of test solution on each plate […]. Two drops of emulsified with microbes feel were added. All experimental samples were taken from the agar after 10, 20, 40, 60 minutes in the environment on the basis of Patrk planted. The bacteria were cultivated at a temperature of 37° C. for 1 day and the mushroom was kept in a thermostat for […] at a temperature of 28° C. Then results were checked.

Pseudomonas aeruginosa = test: Antimicrobial screening, agar dilution method; assay type: cell-based; conditions: after 10, 20, 40 and 60 minutes at all dilutions 1:100, 1:200, 1:400, 1:800
Protocol: as §1

Escherichia coli = test: Antimicrobial screening, agar dilution method; assay type: cell-based; conditions: after 10, 20, 40 and 60 minutes at all dilutions 1:100, 1:200, 1:400, 1:800
Protocol: as §1

Staphylococcus aureus = test: Antimicrobial screening, agar dilution method; assay type: cell-based; conditions: after 10, 20, 40 and 60 minutes at all dilutions 1:100, 1:200, 1:400, 1:800
Protocol: as §1

Structure (SMILES): CCOc1nc2c(c(-c3ccc(F)cc3)c1C#N)CCC/C2=C\c1ccc(F)cc1 [2-ethoxy-8-(4-fluorobenzylidene)-4-(4-fluorophenyl)-5,6,7,8-tetrahydroquinoline-3-carbonitrile]
- inhibition activity (Candida albicans): highest inhibition activity
- inhibition activity (Pseudomonas aeruginosa): highest inhibition activity
- inhibition activity (Escherichia coli): highest inhibition activity
- inhibition activity (Staphylococcus aureus): highest inhibition activity
- melting point: 151 to 153 °C

Reference: US11970453B1, “2-ethoxy-8-(4-fluorobenzylidene)-4-(4-fluorophenyl)-5,6,7,8-tetrahydroquinoline-3-carbonitrile as an antimicrobial compound” (KING FAISAL UNIVERSITY, priority 2023, dated 2024)
